Results reported in article PMC4543428 (European journal of pharmacology, 2015).
Where a name gives a salt, the structure may show the parent alone. Read-outs that look alike come from different tables or passages of the source.

Columns and labels:
sigma2 receptor [1] = target: T1, sigma2 receptor (Mus musculus, UniProt Q8VD00); test: Sigma2 receptor competition binding against [3H]DTG /; conditions: for Sigma2 nH (pseudo-Hill slope): 3.0 nM [3H]DTG / 500 nM (+)-pentazocine, 60 min, 25 °C; for Selectivity Ki Ratio σ2/σ1: sigma2 Ki / sigma1 Ki
T1 sequence (Q8VD00 1-176): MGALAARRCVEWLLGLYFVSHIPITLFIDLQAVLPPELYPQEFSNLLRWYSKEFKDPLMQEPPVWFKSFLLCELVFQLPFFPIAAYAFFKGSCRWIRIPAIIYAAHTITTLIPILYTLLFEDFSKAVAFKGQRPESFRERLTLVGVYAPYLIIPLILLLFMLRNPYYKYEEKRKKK

sigma1 receptor [2] = target: T2, sigma1 receptor (Mus musculus, UniProt O55242); conditions: for Sigma1 nH (pseudo-Hill slope): 1.0 nM [3H](+)-pentazocine, 6 h, 37 °C
sigma1 receptor [3] = target: T2, sigma1 receptor; test: biochemical
sigma1 receptor [4] = target: T2, sigma1 receptor; type: in vivo; conditions: for ED50: mouse, ip
sigma2 receptor [5] = test: [3H]DTG association kinetics and homologous; type: binding, mouse; conditions: 25 °C; 3.0 nM; 500 nM (+)-pentazocine

T2 sequence (O55242 whole entry): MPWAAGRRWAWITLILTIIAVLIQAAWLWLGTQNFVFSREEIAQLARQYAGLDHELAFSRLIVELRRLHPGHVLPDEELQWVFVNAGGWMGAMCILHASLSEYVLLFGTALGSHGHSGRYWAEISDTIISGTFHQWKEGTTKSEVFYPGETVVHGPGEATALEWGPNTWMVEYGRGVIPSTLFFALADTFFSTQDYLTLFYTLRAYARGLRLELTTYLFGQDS

Row | Compound | Sigma2 nH (pseudo-Hill slope) (sigma2 receptor [1]; mouse lung membranes) | Selectivity Ki Ratio σ2/σ1 (sigma2 receptor [1]; mouse lung membranes) | Sigma1 nH (pseudo-Hill slope) (sigma1 receptor [2]; mouse lung membranes) | Ki (sigma1 receptor [3]) [µM] | also measured
1 | C=CCN1CCC2(C)c3cc(O)ccc3CC1C2C (single isomer, unassigned; (+)) [(+)-NANM, (+)-N-allylnormetazocine] | 1.63 ± 0.35 | 1162 | 1.04 ± 0.10 |  | 
2 | C=CCN1CCC2(C)c3cc(O)ccc3CC1C2C (single isomer, unassigned; (-)) [(−)-NANM, (−)-N-allylnormetazocine] | 0.85 ± 0.09 | 2.0 | 1.48 ± 0.28 |  | 
3 | Cc1ccc2c(c1)C1CN(C)CCC1N2C(=O)CSc1nnnn1-c1ccc(Cl)cc1 (stereo not drawn) [AG-205, Z-2-[[1-(4-chlorophenyl)-1H-tetrazol-5-yl]thio]-1-(1,2,3,4,4a,9b-hexahydro-2,8-dimethyl-5H-pyrido[4,3-b]indol-5-yl)ethanone] | 1.06 ± 0.20 | 0.07 | 1.11 ± 0.12 |  | higher apparent affinity for sigma2 sites over sigma1 sites (sigma2 receptor [1]; mouse lung membranes, from Ki values): 14 fold; residual specific [3H](+)-pentazocine binding at highest concentration (sigma1 receptor [2]; 0.02 M, the highest concentration used): approximately 10%
4 | Cc1ccccc1NC(=N)Nc1ccccc1C [DTG, 1,3-di(2-tolyl)guanidine] | 0.90 ± 0.16 |  | 1.21 ± 0.09 | 0.0752 ± 0.00801 | 
5 | COc1ccc2c(c1)[C@]13CCCC[C@@H]1[C@H](C2)N(C)CC3 [Dextromethorphan, dextromethorphan hydrobromide] | 1.22 ± 0.12 | 58 | 0.86 ± 0.12 | 0.0717 ± 0.00656 | IC50 (sigma2 receptor [1]): 4.51 ± 0.714 µM; Ki (sigma2 receptor [1]): 4.2 ± 0.664 µM; sigma1 receptor occupancy across tissues at higher doses (sigma1 receptor [4]; 31.6 – 100 µmol / kg (12 – 37 mg / kg)): fully occupied; ED50 (sigma1 receptor [4]; read-out: ED50, inhibition of specific radioligand binding in heart): 1.2 µmol/kg; ED50 (sigma1 receptor [4]; read-out: ED50, inhibition of specific radioligand binding in lung): 1.2 µmol/kg; ED50 (sigma1 receptor [4]; read-out: ED50, inhibition of specific radioligand binding in spleen): 3.5 µmol/kg; ED50 (sigma1 receptor [4]; read-out: ED50 values, range across lung, heart, spleen and brain): 1.1 to 4.4 µmol/kg; ED50 (sigma1 receptor [4]; read-out: ED50 values, range across tissues): 0.4 to 1.6 mg/kg; ED50 (sigma1 receptor [4]; read-out: lung ED50): 0.4 mg/kg; Hill slope in the presence of phenytoin (sigma1 receptor [2]; phenytoin 1.0 mM in NaOH vehicle, mouse lung membranes): 1.2 ± 0.2; shift to higher apparent sigma1 affinity caused by phenytoin (sigma1 receptor [2]; phenytoin 1.0 mM, mouse lung membranes): 5 fold; Hill slope with vehicle only (sigma1 receptor [2]; vehicle only (50 µL, 0.15 M NaOH), mouse lung membranes): 1.3 ± 0.2
6 | CC(C(O)c1ccc(O)cc1)N1CCC(Cc2ccccc2)CC1 (stereo not drawn) [Ifenprodil, ifenprodil (+)-tartrate] | 0.88 ± 0.10 | 0.1 | 1.06 ± 0.11 | 0.0164 ± 0.00189 | IC50 (sigma2 receptor [1]): 0.0024 ± 0.00027 µM; Ki (sigma2 receptor [1]): 0.00218 ± 0.00024 µM
7 | Cc1ccccc1NC(=N)Nc1ccccc1C [[^3H]DTG, [^3H]1,3-di(2-tolyl)guanidine] |  |  |  |  | time to steady state of specific binding (sigma2 receptor [5]): ≤ 2 min
8 | COc1ccc(CCN2CCN(C/C=C/I)CC2)cc1OC [[^125I]E-IA-DM-PE-PIPZE, E-N-1-(3´-iodoallyl)-N´-4-(3´´,4´´-dimethoxyphenethyl)-piperazine] |  |  |  |  | specific binding in vivo in brain (sigma1 receptor [4]; mouse brain, non-specific defined by BD1063): 85%; specific binding in vivo in heart (sigma1 receptor [4]; mouse heart, non-specific defined by BD1063): 50%; specific binding in vivo in lung (sigma1 receptor [4]; mouse lung, non-specific defined by BD1063 5.0 µmol / kg i.v.): 68%; specific binding in vivo in spleen (sigma1 receptor [4]; mouse spleen, non-specific defined by BD1063): 66%
9 | (−)-cocaine hydrochloride | 0.93 ± 0.09 |  |  |  | 
